Like-named read-outs stand apart in the source and are kept apart here.
Experiments:
SUDHL10 cells [1] = assay: Induction of cytotoxicity (CellTiter-Glo, 5 h), SUDHL10; details: Homo sapiens, SU-DHL10, 5 h, read-out: Cytotox SUDHL10 [M] (median), IC50, median; SUDHL10, 5 h
Method: Therefore, cytotoxicity assays were run in parallel in SUDHL5 and SUDHL10 cells.
The different cell lines were plated in culture medium (RPMI 1640 [GIBCO #22400-089] supplemented with 10% Fetal Bovine Serum) at a density of 3,300 cells in 30 μL/well in a sterile, solid black, flat bottom, polystyrene, TC-treated 384-well microplate (Corning #3571) using Multidrop Combi Reagent Dispenser. As a control, medium without cells was also added to the plate. Cells were incubated in a humidified incubator at 37° C. overnight. […] Rim wells were excluded. The cells were incubated for 5 h hours in a humidified incubator at 37° C. After this incubation, 30 μL of CellTiter-Glo® Luminescent Cell Viability reagent (Promega, G7573) was added to each well using the Multidrop Combi Reagent Dispenser, followed by 15 min incubation on a shaker at room temperature. Finally, luminescence was read at 0.1 ms, with a gain of 3000 using the PHERAstar FS microplate reader (BMG Labtech).

AMO-1 cells = assay: Antiproliferation assay (CellTiter-Glo, 72 h), AMO-1; assay type: cell-based; details: IC50, median, AMO-1, 72 h, read-out: Antiproli AMO-1 [M] median
Method: (§1) Assessment of the Anti-Proliferative Effect of Compounds in Different Cell Lines
(§2) The impact of compounds on the proliferation of different cell lines was assessed using the CellTiter-Glo® Luminescent Cell Viability reagent from Promega (G7573).
(§3) In parallel, cells were plated in a reference (day 0) plate for time zero determination.
(§4) Rim wells were excluded. The cells were incubated for 72 h hours in a humidified incubator at 37° C. The day 0 plate was measured by adding 30 μL/well of CTG solution (CellTiter-Glo® Luminescent Cell Viability reagent, Promega G7573) to time zero wells in the reference plate followed by a 10 minutes incubation and luminescence reading at 0.1 ms. using the PHERAstar FS microplate reader (BMG Labtech).
(§5) After 72 h incubation, the treated plates were measured in the same way as the day 0 plate mentioned above.

SUDHL5 cells [2] = assay: Induction of caspase-3/7 activity (Caspase-Glo 3/7), SUDHL5; assay type: cell-based; details: EC50, median, SUDHL5, 3 h treatment
Method: (§6) Induction of Caspase-3/7 Activity Upon Treatment of Cells with Selected Compounds
(§7) The BH3-domain of MCL-1 sequesters pro-apoptotic proteins, thereby inhibiting apoptosis. In contrast, MCL-1 inhibitors are expected to antagonize this effect leading to an increase in apoptosis, which can be determined by measuring the activity of caspase-3/7.
(§8) The activity of caspase-3/7 was determined in DLBCL (Diffuse large B-cell lymphoma) cell lines (SUDHL5 and SUDHL10) upon treatment with different compounds, using the Caspase-Glo® 3/7 reagent from Promega (G8092).
(§9) Rim wells were excluded. The cells were incubated for 3 h hours in a humidified incubator at 37° C.
(§10) For the evaluation of the results, the background measured with “medium-only” was subtracted from all other values.

SUDHL10 cells [3] = assay: Induction of caspase-3/7 activity (Caspase-Glo 3/7), SUDHL10; assay type: cell-based; details: EC50, median, SUDHL10, 3 h treatment
Method: as §6, §7, §8, §9, §10

SUDHL5 cells [4] = assay: Induction of cytotoxicity (CellTiter-Glo, 5 h), SUDHL5; details: SUDHL5, 5 h
SUDHL5 cells [5] = assay: Antiproliferation assay (CellTiter-Glo, 72 h), SUDHL5; assay type: cell-based; details: IC50, median, SUDHL5, 72 h, read-out: Antiproli SUDHL5 [M] (median)
Method: as §1, §2, §3, §4, §5

[6] = Homo sapiens, SU-DHL-5, 5 h, read-out: Cytotox SUDHL5 [M] (median), IC50, median

Row | SMILES | IC50 (SUDHL10 cells [1]) [M] | IC50 (AMO-1 cells; Homo sapiens, AMO1, 72 h) [M] | EC50 (SUDHL5 cells [2]; Homo sapiens, SU-DHL-5, 3 h) [µM] | EC50 (SUDHL10 cells [3]; Homo sapiens, SU-DHL10, 3 h) [µM] | IC50 (SUDHL5 cells [4]; [6]) [M] | IC50 (SUDHL5 cells [5]; Homo sapiens, SU-DHL-5, 72 h) [M] | IC50 (AMO-1 cells) [M] | EC50 (SUDHL5 cells [2]) [µM] | EC50 (SUDHL10 cells [3]) [µM] | IC50 (SUDHL5 cells [4]; read-out: Cytotox SUDHL5 [M] (median), IC50, median) | IC50 (SUDHL5 cells [5]) [M]
1 | CCc1c2c(nn1C)CN(CCC(C)(C)O)CCCCn1c(C(=O)O)c(CCCOc3cccc4cc(F)ccc34)c3ccc(Cl)c-2c31 (single isomer, unassigned; enantiomer 2) [Example 141, 4-chloro-3-ethyl-7-{3-[(6-fluoronaphthalen-1-yl)oxy]propyl}-14-(3-hydroxy-3-methylbutyl)-2-methyl-10,11,12,13,14,15-hexahydro-2H-pyrazolo[3′,4′:8,9][1,6]diazacycloundecino[10,11,1-hi]indole-8-carboxylic acid (Enantiomer 2)] | 3.6e-06 | 2.4e-06 | 3 | 3.6 | 2.6e-06 | 1.6e-06 | – | – | – | – | –
2 | CCc1c2c(nn1C)CCCCCCn1c(C(=O)O)c(CCCOc3cccc4ccccc34)c3ccc(Cl)c-2c31 (racemic) [Example 51, (rac)-4-chloro-3-ethyl-2-methyl-7-{3-[(naphthalen-1-yl)oxy]propyl}-10,11,12,13,14,15-hexa-hydro-2H-pyrazolo[4′,3′:4,5]azacycloundecino[3,2,1-hi]indole-8-carboxylic acid] | 8.6e-06 | – | – | – | 8.4e-06 | 6.7e-06 | – | – | – | – | –
3 | CCc1c2c(nn1C)COCCCCn1c(C(=O)O)c(CCCOc3cccc4cc(F)ccc34)c3ccc(Cl)c-2c31 (single isomer, unassigned; enantiomer 1) [Example 69, 4-chloro-3-ethyl-7-{3-[(6-fluoronaphthalen-1-yl)oxy]propyl}-2-methyl-2,10,11,12,13,15-hexahydropyrazolo[4′,3′:9,10][1,6]oxazacycloundecino[8,7,6-hi]indole-8-carboxylic acid (Enantiomer 1)] | 7.3e-06 | – | 1.8 | 8.3 | 2.3e-06 | 4.2e-06 | – | – | – | – | –
4 | CCc1nn(CCN2CCOCC2)c2c1-c1c(Cl)ccc3c(CCCOc4cccc5ccccc45)c(C(=O)O)n(c13)C/C=C\CN(C)C2 (racemic) [Example 42, (rac)-(11Z)-4-chloro-3-ethyl-14-methyl-1-[2-(morpholin-4-yl)ethyl]-7-{3-[(naphthalen-1-yl)oxy]-propyl}-10,13,14,15-tetrahydro-1H-pyrazolo[3′,4′:8,9][1,6]diazacycloundecino[10,11,1-hi]indole-8-carboxylic acid] | – | – | 2.8 | 9.4 | 4e-06 | 2.7e-06 | – | – | – | – | –
5 | CCc1c2c(nn1C)COCC1CC1Cn1c(C(=O)O)c(CCCOc3cccc4cc(F)ccc34)c3ccc(Cl)c-2c31 (single isomer, unassigned; (-)) [Example 108, (−)-3-chloro-4-ethyl-14-{3-[(6-fluoronaphthalen-1-yl)oxy]propyl}-5-methyl-5,7,9a,10,10a,11-hexahydro-9H-cyclopropa[3,4]pyrazolo[4′,3′:9,10][1,6]oxazacycloundecino[8,7,6-hi]indole-13-carboxylic acid] | – | – | – | – | – | – | 1.3e-06 | 6.3 | 7.8 | 7e-06 | 1e-05
6 | CCc1c2c(nn1C)CN(CCC1CCOCC1)CCCCn1c(C(=O)O)c(CCCOc3cccc4cc(F)ccc34)c3ccc(Cl)c-2c31 (single isomer, unassigned; enantiomer 2) [Example 137, 4-chloro-3-ethyl-7-{3-[(6-fluoronaphthalen-1-yl)oxy]propyl}-2-methyl-14-[2-(oxan-4-yl)ethyl]-10,11,12,13,14,15-hexahydro-2H-pyrazolo[3′,4′:8,9][1,6]diazacycloundecino[10,11,1-hi]indole-8-carboxylic acid N-ethylethanamine (Enantiomer 2)] | 7.7e-06 | 5e-06 | – | – | 8.2e-06 | 5.1e-06 | – | – | – | – | –

— patent US11478451B1, “Macrocyclic chlorine substituted indole derivatives” (Bayer Aktiengesellschaft, priority 2017, dated 2022)
